The subject of experiment [1] is HepG2. Briefly: Induction of apoptosis in human HepG2 cells assessed as necrotic cells incubated at 0.11 uM for 72 hrs by annexin V-FITC based propidium iodide dual staining assay (reference value: 0.33%). The format is functional.
For experiment [2], the system named is HepG2. Briefly: Induction of apoptosis in human HepG2 cells assessed as caspase3/7 activation at 0.11 uM using caspase-glo 3/7 as substrate relative to control. The format is functional.
For experiment [3], the system named is MCF7. Briefly: Induction of DNA damage in human MCF7 cells assessed as increase in p53 expression at 5 uM incubated for 24 hrs by Western blot analysis. Format: functional, cell-based. In general terms: A western blot detects proteins with antibodies after separation by electrophoresis.
Experiment [4] has as its system MCF7. Briefly: Anticancer activity against human MCF7 cells assessed as absence of normal spindle shape incubated at 0.11 uM for 72 hrs by phase contrast inverted microscopic analysis. Format: functional, cell-based.
The subject of experiment [5] is HepG2. Briefly: Induction of apoptosis in human HepG2 cells assessed as early apoptotic cells by measuring bright green patch incubated at 0.11 uM for 72 hrs by acridine orange-ethidium bromide dual staining based fluorescence microscopic analysis. Format: functional, cell-based.
The test system of experiment [6] is MCF7. Briefly: Induction of apoptosis in human MCF7 cells assessed as early apoptotic cells by measuring bright green patch incubated at 0.11 uM for 72 hrs by acridine orange-ethidium bromide dual staining based fluorescence microscopic analysis. The format is functional, cell-based.
The next experiment relates to dsDNA. Briefly: Induction of damage in dsDNA (unknown origin) assessed as DNA disruption by measuring damage constant at 100 uM incubated for 2.5 hrs by EvaGreen based fluorescence plate reader analysis. Format: nucleic-acid assay.
In experiment [7] the test system is HepG2. Briefly: Anticancer activity against human HepG2 cells assessed as absence of normal spindle shape incubated at 0.11 uM for 72 hrs by phase contrast inverted microscopic analysis. Format: functional, cell-based.
Experiment [8] relates to HeLa. Briefly: Induction of apoptosis in human HeLa cells assessed as late apoptotic cells by measuring orange to red patch incubated at 0.11 uM for 72 hrs by acridine orange-ethidium bromide dual staining based fluorescence microscopic analysis. Format: functional, cell-based.
The subject of experiment [9] is HeLa. Briefly: Anticancer activity against human HeLa cells assessed as round cells incubated at 0.11 uM for 72 hrs by phase contrast inverted microscopic analysis. Format: functional, cell-based.
For experiment [10], the system named is HepG2. Briefly: Anticancer activity against human HepG2 cells assessed as round cells incubated at 0.11 uM for 72 hrs by phase contrast inverted microscopic analysis. Format: functional, cell-based.
The test system of experiment [11] is HeLa. Briefly: Anticancer activity against human HeLa cells assessed as cell shrinkage incubated at 0.11 uM for 72 hrs by phase contrast inverted microscopic analysis. Format: functional, cell-based.
Experiment [12] deals with HepG2. Briefly: Anticancer activity against human HepG2 cells incubated for 24 hrs by MTT assay. Format: functional, cell-based. The settings on record: HepG2, 24 h. In general terms: Formazan colour is commonly taken as a measure of viable cells.
The species named for a further experiment is Homo sapiens. Briefly: Selectivity index, ratio IC50 for human MDA-MB-231 cells to IC50 for human MCF7 cells.
Experiment [13] deals with Caco-2. Briefly: Induction of apoptosis in human Caco-2 cells assessed as necrotic cells incubated at 0.11 uM for 72 hrs by annexin V-FITC based propidium iodide dual staining assay (reference value: 0.02%). Format: functional.
Experiment [14] deals with HeLa. Briefly: Induction of apoptosis in human HeLa cells assessed as necrotic cells incubated at 0.017 uM for 72 hrs by annexin V-FITC based propidium iodide dual staining assay (reference value: 0%). Format: functional.
The test system of experiment [15] is HeLa. Briefly: Induction of apoptosis in human HeLa cells assessed as caspase3/7 activation at 0.017 uM using caspase-glo 3/7 as substrate relative to control. The format is functional.
The subject of experiment [16] is HeLa. Briefly: Anticancer activity against human HeLa cells assessed as absence of normal spindle shape incubated at 0.098uM for 72 hrs by phase contrast inverted microscopic analysis. The format is functional, cell-based.
Experiment [17] concerns HepG2. Briefly: Anticancer activity against human HepG2 cells assessed as round cells incubated at 0.098uM for 72 hrs by phase contrast inverted microscopic analysis. The format is functional, cell-based.
Experiment [18] has as its system HepG2. Briefly: Induction of oxidative stress in human HepG2 cells assessed as cell death by measuring redox alteration fluorescence incubated at 0.097 uM for 72 hrs in presence of dihydro dichlorofluorescein diacetate by DCFH-DA based flow cytometric analysis relative to control. Format: functional.
Experiment [19] relates to HeLa. Briefly: Induction of oxidative stress in human HeLa cells assessed as cell death by measuring redox alteration fluorescence incubated at 0.11 uM for 72 hrs in presence of dihydro dichlorofluorescein diacetate by DCFH-DA based flow cytometric analysis relative to control. The format is functional. On the technique in general: In flow cytometry, cells or beads pass a laser one at a time.

Experiment [20] has as its system MCF7. Briefly: Anticancer activity against human MCF7 cells assessed as absence of normal spindle shape incubated at 0.098uM for 72 hrs by phase contrast inverted microscopic analysis. The format is functional, cell-based.
For experiment [21], the system named is HepG2. Briefly: Induction of apoptosis in human HepG2 cells assessed as early apoptotic cells by measuring bright green patch incubated at 0.098 uM for 72 hrs by acridine orange-ethidium bromide dual staining based fluorescence microscopic analysis. Format: functional, cell-based.
For experiment [22], the system named is Caco-2. Briefly: Induction of apoptosis in human Caco-2 cells assessed as early apoptotic cells incubated at 0.098 uM for 72 hrs by annexin V-FITC based propidium iodide dual staining assay (reference value: 0.07%). Format: functional.
Experiment [23] relates to Caco-2. Briefly: Anticancer activity against human Caco-2 cells assessed as losing contact with neighbouring cells incubated at 0.098uM for 72 hrs by phase contrast inverted microscopic analysis. Format: functional, cell-based.
For experiment [24], the system named is MCF7. Briefly: Induction of apoptosis in human MCF7 cells assessed as necrotic cells incubated at 0.098 uM for 72 hrs by annexin V-FITC based propidium iodide dual staining assay (reference value: 0.03%). The format is functional.
Experiment [25] relates to MCF7. Briefly: Induction of apoptosis in human MCF7 cells assessed as late apoptotic cells by measuring orange to red patch incubated at 0.098 uM for 72 hrs by acridine orange-ethidium bromide dual staining based fluorescence microscopic analysis. The format is functional, cell-based.
The subject of experiment [26] is Caco-2. Briefly: Anticancer activity against human Caco-2 cells assessed as round cells incubated at 0.098uM for 72 hrs by phase contrast inverted microscopic analysis. Format: functional, cell-based.
Experiment [27] concerns Caco-2. Briefly: Anticancer activity against human Caco-2 cells assessed as absence of normal spindle shape incubated at 0.097uM for 72 hrs by phase contrast inverted microscopic analysis. The format is functional, cell-based.
For experiment [28], the system named is HeLa. Briefly: Anticancer activity against human HeLa cells assessed as cell shrinkage incubated at 0.097uM for 72 hrs by phase contrast inverted microscopic analysis. Format: functional, cell-based.
Experiment [29] concerns HepG2. Briefly: Induction of apoptosis in human HepG2 cells assessed as necrotic cells incubated at 0.097 uM for 72 hrs by annexin V-FITC based propidium iodide dual staining assay (reference value: 0.33%). Format: functional.
For experiment [30], the system named is MCF7. Briefly: Induction of apoptosis in human MCF7 cells assessed as late apoptotic cells incubated at 0.097 uM for 72 hrs by annexin V-FITC based propidium iodide dual staining assay (reference value: 0.01%). The format is functional.
For experiment [31], the system named is HeLa. Briefly: Induction of apoptosis in human HeLa cells assessed as total apoptotic cells incubated at 0.097 uM for 72 hrs by annexin V-FITC based propidium iodide dual staining assay (reference value: 0 +/- 0.035%). Format: functional.
Experiment [32] concerns HepG2. Briefly: Induction of apoptosis in human HepG2 cells assessed as late apoptotic cells by measuring orange to red patch incubated at 0.097 uM for 72 hrs by acridine orange-ethidium bromide dual staining based fluorescence microscopic analysis. Format: functional, cell-based.
The subject of experiment [33] is MCF7. Briefly: Induction of apoptosis in human MCF7 cells assessed as late apoptotic cells by measuring orange to red patch incubated at 0.097 uM for 72 hrs by acridine orange-ethidium bromide dual staining based fluorescence microscopic analysis. The format is functional, cell-based.
For experiment [34], the system named is HepG2. Briefly: Anticancer activity against human HepG2 cells assessed as cell shrinkage incubated at 0.097uM for 72 hrs by phase contrast inverted microscopic analysis. Format: functional, cell-based.
Experiment [35] relates to MCF7. Briefly: Anticancer activity against human MCF7 cells assessed as losing contact with neighbouring cells incubated at 0.097uM for 72 hrs by phase contrast inverted microscopic analysis. Format: functional, cell-based.

Molecules are shown by their SMILES. pIC50: −log10 of the molar value. The source made the active and inactive calls. The rule behind the calls is not given here.

The term pIC50 denotes −log10 of the IC50, conventionally taken in molar units. As for `C#CCN1C(=O)CN(/N=C/c2ccc([N+](=O)[O-])o2)C1=O`, the Activity with HepG2 [1] worked out at 3.66%; in the experiment with HepG2 [2] it was 63%; with dsDNA, 8.41; with Caco-2 [13], 0.57%. Also, the result with MCF7 [3], in the experiment on MCF7 [4], in the experiment with HepG2 [5], in the experiment with MCF7 [6], in the experiment with HepG2 [7] and in the experiment on HeLa [8] was Active. The result in the experiment with HeLa [9], with HepG2 [10] and in the experiment on HeLa [11] was Active. In the experiment on HepG2 [12], this compound had a pIC50 of 3.93. The Ratio IC50 in the experiment listed under Homo sapiens came to 2.
In the case of `O=c1[nH]cc(F)c(=O)[nH]1` [FLUOROURACIL], the Activity is 0.89% in the experiment on HeLa [14] and 12% in the experiment on HeLa [15].
With `O=C(CN1C(=O)CN(/N=C/c2ccc([N+](=O)[O-])o2)C1=O)c1ccc(Cl)cc1`, the outcome in the experiment on HeLa [16], with HepG2 [17], in the experiment with MCF7 [20], in the experiment on HepG2 [21], with Caco-2 [23] and with MCF7 [25] was Active. The outcome with Caco-2 [26] was Active. The Activity with HepG2 [18] came out at 38.99%; with HeLa [19] it was 32.41%; in the experiment on Caco-2 [22] it was 8.53%; with MCF7 [24], 3.18%.
Turning to `NS(=O)(=O)c1ccc(-n2cc(CN3C(=O)CN(/N=C/c4ccc([N+](=O)[O-])o4)C3=O)nn2)cc1`, the result in the experiment on Caco-2 [27], with HeLa [28], in the experiment on HepG2 [32], with MCF7 [33], in the experiment with HepG2 [34] and in the experiment on MCF7 [35] was Active. Also, the results for the Activity with HepG2 [29], in the experiment with MCF7 [30] and in the experiment on HeLa [31] were 0%, 60.48% and 39.42%, respectively.

The record behind these values is ChEMBL document CHEMBL5380816, “Inclusion of Nitrofurantoin into the Realm of Cancer Chemotherapy via Biology-Oriented Synthesis and Drug Repurposing” (J Med Chem, 2023).
